Test results published in ChEMBL document CHEMBL1201862, “PubChem BioAssay data set” (2004).
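Cultured in 96-well plates, cells were exposed to test compound for 48 hours across five concentrations. GI50 marks 50% less growth.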 Active and inactive are the calls of the source. Cut-off read from the data, not from the text of the source: active = GI50 up to about 1.1 µM and inactive = higher.

Assays:
Assay in all cases: inhibition of tumour cell growth, NCI panel, 48 h
[1] = test system: 786-0
[2] = test system: A549
[3] = test system: ACHN
[4] = test system: BT-549
[5] = test system: CAKI-1
[6] = test system: CCRF-CEM
[7] = test system: COLO 205
[8] = test system: DU-145
[9] = test system: EKVX
[10] = test system: HCC 2998
[11] = test system: HCT-116
[12] = test system: HCT-15
[13] = test system: HOP-62
[14] = test system: HOP-92
[15] = test system: HT-29
[16] = test system: Hs-578T
[17] = test system: IGROV-1
[18] = test system: K562
[19] = test system: KM12
[20] = test system: LOX IMVI
[21] = test system: M14
[22] = test system: MCF7
[23] = test system: MDA-MB-231
[24] = test system: MDA-MB-435
[25] = test system: MOLT-4
[26] = test system: Malme-3M
[27] = test system: NCI-H23
[28] = test system: NCI-H460
[29] = test system: NCI-H522
[30] = test system: NCI/ADR-RES
[31] = test system: OVCAR-3
[32] = test system: OVCAR-4
[33] = test system: OVCAR-5
[34] = test system: OVCAR-8
[35] = test system: PC-3
[36] = test system: RXF 393
[37] = test system: SF-268
[38] = test system: SF-295
[39] = test system: SF-539
[40] = test system: SK-MEL-28
[41] = test system: SK-MEL-2
[42] = test system: SK-MEL-5
[43] = test system: SK-OV-3
[44] = test system: SN12C
[45] = test system: SNB-19
[46] = test system: SNB-75
[47] = test system: SR
[48] = test system: SW-620
[49] = test system: TK-10
[50] = test system: U-251
[51] = test system: UACC-257
[52] = test system: UACC-62
[53] = test system: UO-31
[54] = test system: A498
[55] = test system: HL-60
[56] = test system: MDA-N
[57] = test system: NCI-H226
[58] = test system: RPMI-8226

Question: With `C/C=C/C/C=C/CCC(=O)C1OC1C(N)=O` (stereo not given) as the compound, how does the GI50 [1] read?
Answer: 13.1 µM (inactive)

Question: What about the GI50 [2] of the same compound?
Answer: 20.7 µM (inactive)

Question: What about the GI50 [3] of the same compound?
Answer: 15.2 µM (inactive)

Question: What about the GI50 [4] of the same compound?
Answer: 12.2 µM (inactive)

Question: What about the GI50 [5] of the same compound?
Answer: 16.3 µM (inactive)

Question: And the GI50 [6]?
Answer: 11.4 µM (inactive)

Question: What about the GI50 [7] of the same compound?
Answer: 18.9 µM (inactive)

Question: And the GI50 [8]?
Answer: 17.5 µM (inactive)

Question: What about the GI50 [9] of the same compound?
Answer: 18.9 µM (inactive)

Question: And the GI50 [10]?
Answer: 17.3 µM (inactive)

Question: And the GI50 [11]?
Answer: 15 µM (inactive)

Question: What about the GI50 [12] of the same compound?
Answer: 12.6 µM

Question: And the GI50 [13]?
Answer: 2.52 µM (inactive)

Question: And the GI50 [14]?
Answer: 16 µM (inactive)

Question: And the GI50 [15]?
Answer: 17.3 µM (inactive)

Question: And the GI50 [16]?
Answer: 22.8 µM (inactive)

Question: And the GI50 [17]?
Answer: 16.4 µM (inactive)

Question: What about the GI50 [18] of the same compound?
Answer: 15.9 µM (inactive)

Question: What about the GI50 [19] of the same compound?
Answer: 15.3 µM (inactive)

Question: And the GI50 [20]?
Answer: 13.2 µM (inactive)

Question: And the GI50 [21]?
Answer: 15.8 µM (inactive)

Question: And the GI50 [22]?
Answer: 14.5 µM (inactive)

Question: What about the GI50 [23] of the same compound?
Answer: 16.5 µM (inactive)

Question: What about the GI50 [24] of the same compound?
Answer: 14.1 µM (inactive)

Question: What about the GI50 [25] of the same compound?
Answer: 13.2 µM (inactive)

Question: What about the GI50 [26] of the same compound?
Answer: 17.8 µM (inactive)

Question: And the GI50 [27]?
Answer: 14.9 µM (inactive)

Question: What about the GI50 [28] of the same compound?
Answer: 12.8 µM (inactive)

Question: What about the GI50 [29] of the same compound?
Answer: 12.4 µM (inactive)

Question: And the GI50 [30]?
Answer: 20 µM (inactive)

Question: And the GI50 [31]?
Answer: 18.7 µM (inactive)

Question: What about the GI50 [32] of the same compound?
Answer: 11.6 µM (inactive)

Question: And the GI50 [33]?
Answer: 18.8 µM (inactive)

Question: And the GI50 [34]?
Answer: 13.3 µM (inactive)

Question: And the GI50 [35]?
Answer: 15.4 µM (inactive)

Question: And the GI50 [36]?
Answer: 9.4 µM (inactive)

Question: And the GI50 [37]?
Answer: 12.5 µM (inactive)

Question: What about the GI50 [38] of the same compound?
Answer: 15 µM (inactive)

Question: And the GI50 [39]?
Answer: 15.2 µM (inactive)

Question: What about the GI50 [40] of the same compound?
Answer: 15.4 µM (inactive)

Question: And the GI50 [41]?
Answer: 18.6 µM (inactive)

Question: What about the GI50 [42] of the same compound?
Answer: 15 µM (inactive)

Question: And the GI50 [43]?
Answer: 35.1 µM (inactive)

Question: What about the GI50 [44] of the same compound?
Answer: 19 µM (inactive)

Question: And the GI50 [45]?
Answer: 18.2 µM (inactive)

Question: And the GI50 [46]?
Answer: 14.3 µM (inactive)

Question: And the GI50 [47]?
Answer: 10.6 µM (inactive)

Question: And the GI50 [48]?
Answer: 19.8 µM (inactive)

Question: And the GI50 [49]?
Answer: 13.2 µM (inactive)

Question: What about the GI50 [50] of the same compound?
Answer: 16.8 µM (inactive)

Question: And the GI50 [51]?
Answer: 17.3 µM (inactive)

Question: What about the GI50 [52] of the same compound?
Answer: 15.9 µM (inactive)

Question: What about the GI50 [53] of the same compound?
Answer: 11.8 µM (inactive)

Question: How did the GI50 [1] turn out when `S=C(N/N=C(/c1ccccc1)c1ccccn1)Nc1ccc(Cl)cc1` was run?
Answer: 1.05 µM (active)

Question: And the GI50 [54]?
Answer: 3.3 µM (inactive)

Question: And the GI50 [2]?
Answer: 1.97 µM (inactive)

Question: What about the GI50 [3] of the same compound?
Answer: 0.322 µM (active)

Question: What about the GI50 [4] of the same compound?
Answer: 3.15 µM (inactive)

Question: And the GI50 [5]?
Answer: 0.264 µM (active)

Question: And the GI50 [6]?
Answer: < 0.0155 µM (active)

Question: What about the GI50 [7] of the same compound?
Answer: 0.0418 µM (active)

Question: What about the GI50 [8] of the same compound?
Answer: 1.87 µM (inactive)

Question: And the GI50 [9]?
Answer: 0.462 µM (active)

Question: What about the GI50 [10] of the same compound?
Answer: 1.88 µM (inactive)

Question: What about the GI50 [11] of the same compound?
Answer: < 0.0162 µM (active)

Question: And the GI50 [12]?
Answer: 0.067 µM

Question: What about the GI50 [55] of the same compound?
Answer: < 10 nM (active)

Question: And the GI50 [13]?
Answer: 1.93 µM (inactive)

Question: And the GI50 [14]?
Answer: 2.11 µM (inactive)

Question: What about the GI50 [15] of the same compound?
Answer: 0.0998 µM (active)

Question: And the GI50 [16]?
Answer: 0.873 µM (active)

Question: And the GI50 [17]?
Answer: 0.112 µM (active)

Question: What about the GI50 [18] of the same compound?
Answer: < 0.01 µM (active)

Question: And the GI50 [19]?
Answer: 1.07 µM (active)

Question: And the GI50 [20]?
Answer: 0.164 µM (active)

Question: What about the GI50 [21] of the same compound?
Answer: 0.03 µM (active)

Question: And the GI50 [22]?
Answer: 0.0258 µM (active)

Question: And the GI50 [23]?
Answer: < 0.0106 µM (active)

Question: And the GI50 [24]?
Answer: 2.22 µM (inactive)

Question: What about the GI50 [56] of the same compound?
Answer: 1.09 µM (active)

Question: What about the GI50 [25] of the same compound?
Answer: < 0.0171 µM (active)

Question: And the GI50 [26]?
Answer: 0.109 µM (active)

Question: What about the GI50 [57] of the same compound?
Answer: 542 nM (active)

Question: What about the GI50 [28] of the same compound?
Answer: 0.531 µM (active)

Question: And the GI50 [29]?
Answer: 1.16 µM (inactive)

Question: What about the GI50 [30] of the same compound?
Answer: 0.195 µM (active)

Question: And the GI50 [31]?
Answer: < 0.0316 µM (active)

Question: And the GI50 [32]?
Answer: 5.06 µM (inactive)

Question: And the GI50 [33]?
Answer: 0.0705 µM (active)

Question: And the GI50 [34]?
Answer: 0.0444 µM (active)

Question: What about the GI50 [35] of the same compound?
Answer: 0.0476 µM (active)

Question: What about the GI50 [58] of the same compound?
Answer: < 22.1 nM (active)

Question: And the GI50 [36]?
Answer: 1.85 µM (inactive)

Question: And the GI50 [37]?
Answer: 0.236 µM (active)

Question: What about the GI50 [38] of the same compound?
Answer: 0.627 µM (active)

Question: What about the GI50 [39] of the same compound?
Answer: 1.45 µM (inactive)

Question: What about the GI50 [40] of the same compound?
Answer: 2.28 µM (inactive)

Question: And the GI50 [41]?
Answer: 0.455 µM (active)

Question: What about the GI50 [42] of the same compound?
Answer: 0.403 µM (active)

Question: What about the GI50 [43] of the same compound?
Answer: 0.175 µM (active)

Question: And the GI50 [44]?
Answer: 0.211 µM (active)

Question: What about the GI50 [45] of the same compound?
Answer: 3.02 µM (inactive)

Question: What about the GI50 [46] of the same compound?
Answer: 2.06 µM (inactive)

Question: What about the GI50 [47] of the same compound?
Answer: < 0.0204 µM (active)

Question: What about the GI50 [48] of the same compound?
Answer: 0.0423 µM (active)

Question: What about the GI50 [49] of the same compound?
Answer: 0.551 µM (active)

Question: And the GI50 [50]?
Answer: 0.124 µM (active)

Question: And the GI50 [51]?
Answer: 0.0569 µM (active)

Question: And the GI50 [52]?
Answer: 0.59 µM (active)

Question: What about the GI50 [53] of the same compound?
Answer: 0.543 µM (active)
